# Test results as given in patent US20080280814A1, “Pharmaceutical Compositions Containing Insulin and Insulinotropic Peptide” (Novo Nordisk A/S, priority 2004, published 2008).
# Biological target: T1, His^B10 anion site of the R6 hexameric aspart (Homo sapiens, UniProt P01308, P52D)
# T1 construct: The A-chain is a 21 amino acid peptide and the B-chain is a 30 amino acid peptide
# Test: 600 MHz proton NMR of aspart/liraglutide mixtures (R6 hexamer signal of Cys A6 alpha proton at 5.6 ppm)
# Type: binding
# Conditions: for stabilization of the aspart R6 conformation (NMR resonances between 5 and 6 ppm): ligand at 3 mM added to the aspart/liraglutide mixtures of FIG. 13, FIG. 14, 15
# Method: Insulin Aspart (B28 Asp human insulin) and liraglutide mixtures were prepared with constant aspart concentration (0.6 mM) and increasing concentration of liraglutide (going from 0 to 2.4 mM). Mixtures are formulated at pH 7.5, 1.6% w/v d-glycerol, 0.3 mM Zn(Ac)2, 30 mM d-phenol (deuterated phenol in order to avoid any proton NMR signal). […] This region of the proton NMR signal only included signals from aspart, no signals from liraglutide were present.
# Ligands for the His^B10 anion site of the R6 hexameric aspart entity will stabilize this R6 conformation. Two such ligands were tested under the same conditions as was used in the experiment depicted in FIG. 13 with the addition of ligands at 3 mM concentration.
# T1 sequence (P01308 25-54 P52D): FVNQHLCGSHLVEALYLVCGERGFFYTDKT
# T1 sequence (P01308 90-110): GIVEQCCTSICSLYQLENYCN
Compound,stabilization of the aspart R6 conformation (NMR resonances between 5 and 6 ppm),"tightness of binding to the Zn-binding pocket of aspart, compared (ligand at 3 mM, FIG. 15 against FIG. 14)"
"O=C1NC(=O)/C(=C/c2cccc3ccccc23)S1 [5-Naphthalen-1-ylmethylenethiazolidine-2,4-dione]",invariant aspart resonances under increasing liraglutide concentration,binds even tighter than the 5-Benzyl-2H-tetrazole
c1ccc(Cc2nn[nH]n2)cc1 [5-Benzyl-2H-tetrazole],stabilized the R6 conformation,
